Results: US20230349907A1, “BIOPROBES FOR LYSYL OXIDASES AND USES THEREOF” (Pharmaxis Ltd., priority 2020, published 2023)
Where “and” joins values, the source holds several entries; their conditions need not be identical. Identical values can stand only once. Counter-ions that a name gives are not always drawn.

Tests used:
rhLOXL2 [1] = target: T1, rhLOXL2 (Homo sapiens (Human), UniProt Q9Y4K0); assay: antibody/bioprobe ELISA assay detecting rhLOXL2; type: binding
Method: Antibody A (AF2639) was conjugated to beads, bound to high protein binding plates (microlon 600, high binding, flat bottom, Greiner 655061 using coating buffer containing 71.5 mM NaHCO3 and 28.5 mM Na2CO3) overnight at 4° C. After washing with a mild detergent (0.05% Tween 20) to remove excess and unbound antibody, the beads or plates were then incubated with blocking solution (1-5% BSA/TBS) to block any free binding spots, for 1 hour at room temperature. The blocking solution was then removed and rhLOXL2 was added and incubated for 3 hours at 4° C. After washing (with a mild detergent) to remove excess/unbound protein, bioprobe Compound 1-1 (which is conjugated with biotin) was incubated for 2 hours at 37° C. at a concentration between IC50 to IC100 of the rhLOXL2 (as measured in a standard biochemical assay eg Amplex Red/Resorufin). After a washing step (with a mild detergent) streptavidin conjugated to horseradish peroxidase or an appropriate label was added and incubation was continued for 1 hour at room temperature. After an additional washing step (with mild TBS/tween detergent), a detection substrate (resorufin or TMB) was added followed by the fluorescence read at Excitation: 565 nm/Emmission: 590 nm or maximum absorbance at 450 nm. A suitable capture antibody will allow for bioprobe binding whilst providing a large signal.
FIG. 3 depicts the absorbance values (optical density 450 nm) from the antibody/bioprobe assay, using one antibody and Compound 1-1 (FIG. 3A) AF2639 was used as the capture antibody, rhLOXL2 was used as the antigen and 80 nM of Compound 1-1 was used as the detection. FIG. 3B) Fitzgerald 70R-12876 was used as the capture antibody, rhLOXL2 is used as the antigen and 80 nM of Compound 1-1 is used as the detection.
When the bioprobe contains two biotin moieties, the signal is more robust than a single biotin counterpart. […] AF2639 was used as the capture, rhLOXL2 was used as the antigen and 78 nM of Compound 1-12 was used for detection.

LOX in human serum = LOX in human serum (Homo sapiens (Human), UniProt P28300); assay: LOX Bioprobe Activity Assay (Simoa); type: biochemical
Method: The LOX Bioprobe Assay used a Simoa HD-1 analyzer and Simoa technology to run a 2-step digital immunoassay, to measure the activity of unbound LOX in human serum.
This assay used the same anti-LOX capture antibody as for the Protein Concentration Assay. The bioprobe (Compound 1-12) was diluted down to 130 μM in deionized H2O prior to being diluted in Detector Buffer. Before being loaded onto the analyzer, samples were diluted at least 6 fold in Assay Buffer (1% BSA, 0.25% Rabbit Serum, 2% PEG (20k MW), 0.55% Tween-20, 1×PBS; used to dilute samples, controls, and detector reagent). To determine the background signal, diluted samples were pre-incubated for 30 min with LOX inhibitor beta-aminoproprionitrile (BAPN).
In the LOX Bioprobe Activity 2-step immunoassay, target-antibody-coated paramagnetic beads (500k per mL) were combined with diluted sample and biotinylated detector-bioprobe ([…]) in the same incubation cuvette for 54 minutes. […]
A single-labeled target molecule results in sufficient fluorescent signal in 30 seconds to be detected and counted by the Simoa optical system. […] At higher target concentration, when most of the bead-containing wells have one or more labeled target molecules, the total fluorescence signal is proportional to the amount of target present in the sample. […]

rhLOXL2 [2] = target: T1, rhLOXL2; assay: sandwich ELISA with bioprobe pre-incubated with rhLOXL2; type: binding; settings: 400 nM bioprobe pre-incubated, 1250 ng/mL rhLOXL2, AF2639 capture, antibody C (C-AB179810) detection, FIG. 5
Method: A further aim was directed at determining whether the presence of bioprobe (Compound 1-1), pre-incubated and bound to the active site of rhLOXL2, would affect antibody binding and detection by sandwich ELISA. […] FIG. 5 depicts the absorbance values (optical density 460 nm) from the antibody/antibody assay, using two antibodies. Antibody A (AF2639) was used as the capture antibody, 1250 ng/mL rhLOXL2 was used as the antigen and antibody C (C-AB179810) was used as the detection antibody. 400 nM of Compound 1-1 was pre-incubated with rhLOXL2 before commencement of the ELISA assay.

Bovine LOX = Bovine LOX (Bos taurus (Bovine), UniProt P33072); assay: LOX inhibition, peroxidase-coupled Amplex Red assay; type: biochemical; settings: 30 min preincubation at 37° C.
Excerpt: (§1) Method to Determine the Ability of Compounds of the Invention to Inhibit LOX and LOXL1-4 from Different Sources […] S., Trackman P. C. and Kagan H. M., Reaction of aortic lysyl oxidase with beta-aminoproprionitrile. J Biol Chem 1983; 258: 4331-4338). There are five LOX family members; these are LOX, LOXL1, LOXL2, LOXL3 and LOXL4. LOX and LOXL family members can be acquired as recombinant active proteins from commercial sources, or extracted from animal tissues like bovine aorta, tendons, pig skin; or prepared from cell cultures. The inhibitory effects of the compounds of the present invention were tested against the given LOX-LOXL preparation using a high-throughput coupled colorimetric method (Holt A. and Palcic M., A peroxidase-coupled continuous absorbance plate-reader assay for flavin monoamine oxidases, copper-containing amine oxidases and related enzymes. Nat. Protoc. 2006; 1: 2498-2505). The assay was developed using either 384 or 96 well format. […] Test compounds were dissolved in DMSO and tested in a Concentration Response Curve (CRC) with 11 data points, typically in the micromolar or nanomolar range after incubation with the enzyme for 30 min at 37° C. 25 μL of a reaction mixture containing twice the KM concentration of putrescine (Sigma Aldrich, e.g. 20 mM for LOX, or 10 mM for LOXL2 and LOXL3), 120 μM Amplex Red (Sigma Aldrich) and 1.5 U/mL horseradish peroxidase (Sigma Aldrich) prepared in 1.2 M urea, 50 mM sodium borate buffer (pH 8.2) were then added to the corresponding wells. The above volumes were doubled in the case of 96 well plates. The fluorescence (RFU) was read every 2.5 m n for 30 m u […], excitation 565 nm and emission 590 nm (Optima; BMG labtech). The slope of the kinetics for each well was calculated using MARS data analysis software (BMG labtech) and this value was used to deduce the IC50 value (Dotmatics).

rhLOXL2 [3] = target: T1, rhLOXL2; assay: LOXL2 inhibition, peroxidase-coupled Amplex Red assay; type: biochemical; settings: 30 min preincubation at 37° C.
Excerpt: as §1

Human LOXL3 = Human LOXL3 (Homo sapiens (Human), UniProt P58215); assay: LOXL3 inhibition, peroxidase-coupled Amplex Red assay; type: biochemical; settings: 30 min preincubation at 37° C.
Excerpt: (§2) Method to Determine the Ability of Compounds of the Invention to Inhibit LOX and LOXL1-4 from Different Sources […] S., Trackman P. C. and Kagan H. M., Reaction of aortic lysyl oxidase with beta-aminoproprionitrile. J Biol Chem 1983; 258: 4331-4338). There are five LOX family members; these are LOX, LOXL1, LOXL2, LOXL3 and LOXL4. LOX and LOXL family members can be acquired as recombinant active proteins from commercial sources, or extracted from animal tissues like bovine aorta, tendons, pig skin; or prepared from cell cultures. The inhibitory effects of the compounds of the present invention were tested against the given LOX-LOXL preparation using a high-throughput coupled colorimetric method (Holt A. and Palcic M., A peroxidase-coupled continuous absorbance plate-reader assay for flavin monoamine oxidases, copper-containing amine oxidases and related enzymes. Nat. Protoc. 2006; 1: 2498-2505). The assay was developed using either 384 or 96 well format. […] The fluorescence (RFU) was read every 2.5 m n for 30 m u at a range of temperatures from 37° C. to 45° C., excitation 565 nm and emission 590 nm (Optima; BMG labtech). The slope of the kinetics for each well was calculated using MARS data analysis software (BMG labtech) and this value was used to deduce the IC50 value (Dotmatics).

Human LOXL4 = Human LOXL4 (Homo sapiens (Human), UniProt Q96JB6); assay: LOXL4 inhibition, peroxidase-coupled Amplex Red assay; type: biochemical; settings: 30 min preincubation at 37° C.
Excerpt: as §2

Human LOXL1 = Human LOXL1 (Homo sapiens (Human), UniProt Q08397); assay: LOXL1 inhibition, peroxidase-coupled Amplex Red assay; type: biochemical; settings: 30 min preincubation at 37° C.
Excerpt: as §2

LOX in human serum, sequence (P28300 169-417): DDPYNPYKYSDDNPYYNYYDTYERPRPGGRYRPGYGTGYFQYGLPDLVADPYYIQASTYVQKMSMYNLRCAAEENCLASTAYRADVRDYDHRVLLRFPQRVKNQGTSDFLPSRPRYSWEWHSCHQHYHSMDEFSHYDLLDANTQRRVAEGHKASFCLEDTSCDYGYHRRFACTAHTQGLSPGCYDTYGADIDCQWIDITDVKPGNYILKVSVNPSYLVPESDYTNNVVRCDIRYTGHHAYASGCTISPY
T1 sequence (Q9Y4K0 26-774): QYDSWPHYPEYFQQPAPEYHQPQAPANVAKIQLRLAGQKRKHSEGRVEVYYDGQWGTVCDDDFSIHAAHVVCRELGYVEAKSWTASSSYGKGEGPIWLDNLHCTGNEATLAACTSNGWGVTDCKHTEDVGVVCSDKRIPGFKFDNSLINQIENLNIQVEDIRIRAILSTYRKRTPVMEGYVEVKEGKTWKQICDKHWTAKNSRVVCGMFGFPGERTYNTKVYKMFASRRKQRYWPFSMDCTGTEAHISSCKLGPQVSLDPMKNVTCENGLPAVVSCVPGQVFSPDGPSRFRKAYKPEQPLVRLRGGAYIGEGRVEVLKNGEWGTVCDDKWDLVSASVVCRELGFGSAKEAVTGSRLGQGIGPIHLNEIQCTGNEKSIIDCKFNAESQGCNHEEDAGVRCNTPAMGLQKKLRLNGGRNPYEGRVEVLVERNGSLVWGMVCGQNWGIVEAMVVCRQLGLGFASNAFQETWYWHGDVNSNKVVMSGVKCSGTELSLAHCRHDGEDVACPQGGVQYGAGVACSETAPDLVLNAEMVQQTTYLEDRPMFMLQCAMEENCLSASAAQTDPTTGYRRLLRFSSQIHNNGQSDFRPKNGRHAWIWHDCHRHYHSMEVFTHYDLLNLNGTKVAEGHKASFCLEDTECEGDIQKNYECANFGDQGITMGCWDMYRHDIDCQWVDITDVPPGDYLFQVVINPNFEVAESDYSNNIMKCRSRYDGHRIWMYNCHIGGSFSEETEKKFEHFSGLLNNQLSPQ
Bovine LOX, sequence (P33072 170-418): as the sequence (P28300 169-417) above, with S10T, G29S, A49P, S64A, T80S, A84X, N142S, G188N, T224S, D231E counted along it
Human LOXL3, sequence (P58215 26-753): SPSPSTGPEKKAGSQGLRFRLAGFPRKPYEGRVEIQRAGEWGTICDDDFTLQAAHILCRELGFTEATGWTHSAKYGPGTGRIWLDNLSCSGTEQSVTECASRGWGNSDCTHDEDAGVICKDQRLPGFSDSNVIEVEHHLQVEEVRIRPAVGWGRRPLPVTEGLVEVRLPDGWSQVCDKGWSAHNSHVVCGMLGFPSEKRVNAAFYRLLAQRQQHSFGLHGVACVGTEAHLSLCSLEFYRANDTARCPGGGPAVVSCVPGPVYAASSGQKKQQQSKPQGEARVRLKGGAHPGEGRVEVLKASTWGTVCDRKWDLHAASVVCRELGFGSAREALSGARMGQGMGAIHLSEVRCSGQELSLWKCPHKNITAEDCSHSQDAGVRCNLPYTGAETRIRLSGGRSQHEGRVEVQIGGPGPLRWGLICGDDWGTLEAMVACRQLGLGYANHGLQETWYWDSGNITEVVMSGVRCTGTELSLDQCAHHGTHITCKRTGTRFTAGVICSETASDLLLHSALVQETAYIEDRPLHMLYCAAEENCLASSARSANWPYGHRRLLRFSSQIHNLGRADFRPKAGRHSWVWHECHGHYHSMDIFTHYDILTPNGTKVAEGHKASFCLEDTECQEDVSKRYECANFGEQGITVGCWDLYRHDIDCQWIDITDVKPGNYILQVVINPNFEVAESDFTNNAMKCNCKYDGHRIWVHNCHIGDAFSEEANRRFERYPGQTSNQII
Human LOXL1, sequence (Q08397 96-574): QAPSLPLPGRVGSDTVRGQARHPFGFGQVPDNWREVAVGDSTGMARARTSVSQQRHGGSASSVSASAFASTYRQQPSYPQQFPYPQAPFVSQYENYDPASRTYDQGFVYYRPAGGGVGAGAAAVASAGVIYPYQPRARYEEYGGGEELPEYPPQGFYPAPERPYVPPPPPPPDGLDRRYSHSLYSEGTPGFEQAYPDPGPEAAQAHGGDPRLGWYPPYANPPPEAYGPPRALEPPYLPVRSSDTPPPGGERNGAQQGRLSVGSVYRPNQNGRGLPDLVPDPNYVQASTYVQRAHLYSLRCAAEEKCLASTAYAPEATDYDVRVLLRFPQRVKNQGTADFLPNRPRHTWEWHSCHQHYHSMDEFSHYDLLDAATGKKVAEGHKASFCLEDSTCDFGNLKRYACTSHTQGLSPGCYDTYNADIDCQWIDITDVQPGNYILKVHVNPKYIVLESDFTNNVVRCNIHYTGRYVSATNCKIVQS
Human LOXL4, sequence (Q96JB6 25-756): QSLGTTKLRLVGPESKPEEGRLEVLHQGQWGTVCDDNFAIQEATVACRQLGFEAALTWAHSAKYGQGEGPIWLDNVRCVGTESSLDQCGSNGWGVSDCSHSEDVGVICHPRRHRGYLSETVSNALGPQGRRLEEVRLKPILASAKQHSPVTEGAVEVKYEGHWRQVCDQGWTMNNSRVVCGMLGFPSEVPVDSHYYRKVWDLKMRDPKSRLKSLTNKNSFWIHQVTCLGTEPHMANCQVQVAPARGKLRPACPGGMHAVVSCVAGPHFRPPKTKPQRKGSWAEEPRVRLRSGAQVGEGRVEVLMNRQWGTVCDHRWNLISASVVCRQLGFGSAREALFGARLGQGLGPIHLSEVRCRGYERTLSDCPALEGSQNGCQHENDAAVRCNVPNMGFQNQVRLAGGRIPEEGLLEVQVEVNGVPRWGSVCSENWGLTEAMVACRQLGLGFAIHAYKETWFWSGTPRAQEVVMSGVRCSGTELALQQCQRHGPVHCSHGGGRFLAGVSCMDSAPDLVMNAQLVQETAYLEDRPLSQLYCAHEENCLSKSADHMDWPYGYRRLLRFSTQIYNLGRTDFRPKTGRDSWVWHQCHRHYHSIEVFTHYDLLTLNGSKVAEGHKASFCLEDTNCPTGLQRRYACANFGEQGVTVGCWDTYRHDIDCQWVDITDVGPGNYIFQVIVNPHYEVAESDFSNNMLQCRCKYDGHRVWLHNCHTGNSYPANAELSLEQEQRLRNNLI

| SMILES | effect of inhibitor on bioprobe rhLOXL2 signal (rhLOXL2 [1]; AF2639 capture, Compound 1-1 detection, FIG. 3A) | Average signal (LOX in human serum; human serum + CM (×100 diluted) + BAPN, bioprobe Compound 1-12) | effect of inhibitor on LOX bioprobe signal (LOX in human serum; human serum spiked with human fibroblast conditioned media) | rhLOXL2 signal by bioprobe detection (optical density 450 nm) (rhLOXL2 [1]; Antibody A (AF2639) as capture antibody, 80 nM bioprobe, FIG. 3A) | rhLOXL2 detection by bioprobe (optical density 450 nm) (rhLOXL2 [1]; Antibody B (Fitzgerald 70R-12876) as capture antibody, 80 nM bioprobe, FIG. 3B) | rhLOXL2 detection levels in the presence or absence of bioprobe (rhLOXL2 [2]) | IC50 (Bovine LOX) [nM] | IC50 (rhLOXL2 [3]) [nM] | IC50 (Human LOXL3) [nM] | signal of bioprobe with two biotin moieties versus single biotin counterpart (optical density 460 nm) (rhLOXL2 [1]; AF2639 capture, 78 nM bioprobe, FIG. 4) | IC50 (Human LOXL4) [nM] | IC50 (Human LOXL1) [nM] |
| --- | --- | --- | --- | --- | --- | --- | --- | --- | --- | --- | --- | --- |
| N#CCCN [BAPN, β-aminopropionitrile] | the signal is ablated | 0.0093 and 0.0077 | significantly reduces the signal |  |  |  |  |  |  |  |  |  |
| Cc1c(Cc2ccc(S(=O)(=O)N(C)C)cc2)c2cc(C(=O)N3CCN(C(=O)CCCC[C@@H]4SC[C@@H]5NC(=O)N[C@@H]54)CC3)ccc2n1C/C(F)=C/CN [Compound 1-1, 4-((1-((Z)-4-amino-2-fluorobut-2-en-1-yl)-2-methyl-5-(4-(5-((3aS,4S,6aR)-2-oxohexahydro-1H-thieno[3,4-d]imidazol-4-yl)pentanoyl)piperazine-1-carbonyl)-1H-indol-3-yl)methyl)-N,N-dimethylbenzenesulfonamide hydrochloride] |  |  |  | shows a specific rhLOXL2 signal | prevents the detection of rhLOXL2 | no difference in rhLOXL2 detection levels | > 300 | < 300 |  |  |  |  |
| NC/C=C(\F)CS(=O)(=O)c1cccc(Cn2cc(-c3cc(OCCCc4cn(CCCCC[C@@H]5SC[C@@H]6NC(=O)N[C@@H]65)nn4)cc(OCCCc4cn(CCCCC[C@@H]5SC[C@@H]6NC(=O)N[C@@H]65)nn4)c3)nn2)c1 [Compound 1-12, (3aS,3a'S,4S,4'S,6aR,6a′R)-4,4′-(((((5-(1-(3-(((Z)-4-amino-2-fluorobut-2-en-1-yl)sulfonyl)benzil)-1H-1,2,3-triazol-4-yl)-1,3-phenylene)bis(oxy))bis(propane-3,1-diyl))bis(1H-1,2,3-triazole-4,1-diyl))bis(pentane-5,1-diyl))bis(tetrahydro-1H-thieno[3,4-d]imidazol-2(3H)-one) hydrochloride] |  |  |  |  |  |  | > 300 | < 300 | > 300 | more robust | < 300 | > 300 |
| CN(C)S(=O)(=O)c1ccc(C(OCc2ccc(-n3cc(CNC(=O)CCCC[C@@H]4SC[C@@H]5NC(=O)N[C@@H]54)nn3)cc2)c2cn(C/C(F)=C/CN)nn2)cc1 (stereo partly drawn) [Compound 1-15, N-((1-(4-(((1-((Z)-4-amino-2-fluorobut-2-en-1-yl)-1H-1,2,3-triazol-4-yl)(4-(N,N-dimethylsulfamoyl)phenyl)methoxy)methyl)phenyl)-1H-1,2,3-triazol-4-yl)methyl)-5-((3aS,4S,6aR)-2-oxohexahydro-1H-thieno[3,4-d]imidazol-4-yl)pentanamide hydrochloride] |  |  |  |  |  |  | < 300 | < 300 | < 300 |  |  |  |
